Reference: patent publication EP0571928A1, “Acyclic Tocotrienol analogs in the treatment of hypercholesterolemia and hyperlipidemia” (Bristol-Myers Squibb Company, priority 1992, dated 1993)

Test system: cholesterol biosynthesis in HepG2 cells
Assay: HepG2 cell culture model - 14C-acetate incorporation assay (cholesterol synthesis)
Assay type: cell-based
Details: 3-4 hours incubation, 2-14C-acetate incorporation into digitonin-precipitable sterols, vs. vehicle controls
Protocol: HepG2 Cell Culture Model - 14C-Acetate Incorporation Assay
After 16 hours in LDS containing media, test compounds were added in dimethylsulfoxide vehicle (0.5% v/v final conc.) for an incubation period of 3-4 hours. Cholesterol synthesis was then directly determined by 2-14C-acetate (1.8 mCi/mmol, 0.5 µCi/ml) incorporation for 30 to 60 minutes (previously shown to be time-linear) into total digitonin-precipitable sterols. […] Percent inhibition was calculated from the average of duplicates vs. triplicate vehicle controls conducted simultaneously.

Q: For “1-(4-Hydroxyphenyl)-6,10,14-Trimethyl-5(E), 9(E), 13-Pentadecatrien-1- One [Example 35]”, which “Sterol Biosynthesis % Inhibition 10µM” value is on record?
A: 78%

Q: Which “Sterol Biosynthesis % Inhibition 10µM” value does the source give for “2-Hydroxy-4,6-Dimethyl-5-[(5,9,13-Trimethyl-4(E), 8(E), 12-Tetradecatrienyl)oxy]-1,3-Benzenedimethanol [Example 17]” here?
A: 72%

Q: With “3,5-Dimethoxy-4-[(5,9,13-Trimethyl-4(E), 8(E), 12-tetradecatrienyl)oxy]phenol [Example 16]” as the molecule, how does the “Sterol Biosynthesis % Inhibition 10µM” value read?
A: 66%

Q: How did the “Sterol Biosynthesis % Inhibition 10µM” value turn out when “4-[2-(5,9,13)-Trimethyl-4(E), 8(E), 12-tetradecatrienyl)-1,3-dithian-2-yl]phenol [Example 34]” was run?
A: 43%

Q: For “4-[(5,9,13-Trimethyl-4(E), 8(E),12-tetradecatrienyl)oxy]benzenemethanol [Example 21]”, which “Sterol Biosynthesis % Inhibition 10µM” value is on record?
A: 64%

Same assay, conditions: Homo sapiens, 3-4 hours incubation, 2-14C-acetate incorporation into digitonin-precipitable sterols, vs. vehicle controls, read-out: Sterol Biosynthesis % Inhibition 10µM

Q: How did the inhibition at 10 µM turn out when `CC(C)=CCC/C(C)=C/CC/C(C)=C/CCCOc1ccccc1` [Example 5, (5,9,13-Trimethyl-4(E), 8(E),12-tetradecatrienyl)oxy benzene] was run?
A: 12%

Q: `CC(C)=CCC/C(C)=C/CC/C(C)=C/CCCOc1ccccc1O` [Example 6, 2-[(5,9,13-Trimethyl-4(E), 8(E),12-tetradecatrienyl)oxy]phenol] was tested. Which inhibition at 10 µM did it give?
A: 10%

Q: `CC(C)=CCC/C(C)=C/CC/C(C)=C/CCCOc1cccc(O)c1` [Example 7, 3-[(5,9,13-Trimethyl-4(E), 8(E),12-tetradecatrienyl)oxy]phenol] was tested. Which inhibition at 10 µM did it give?
A: 38%

Q: Which inhibition at 10 µM does the source give for `CC(C)=CCC/C(C)=C/CC/C(C)=C/CCCOc1ccc(O)cc1` [Example 8, 4-[(5,9,13-Trimethyl-4(E), 8(E),12-tetradecatrienyl)oxy]phenol] here?
A: 71%

Q: Which inhibition at 10 µM does the source give for `CC(C)=CCC/C(C)=C/CC/C(C)=C/COc1ccc(O)c(C)c1C` [Example 9, 2,3-Dimethyl-4-[(3,7,11-Trimethyl-2(E), 6(E), 10-dodecatrienyl)oxy]phenol] here?
A: 36%

Q: For `CC(C)=CCC/C(C)=C/CC/C(C)=C/CCOc1ccc(O)c(C)c1C` [Example 10, 2,3-Dimethyl-4-[(4,8,12-Trimethyl-3(E),7(E), 11-tridecatrienyl)oxy]phenol], which inhibition at 10 µM is on record?
A: 58%

Q: With `CC(C)=CCC/C(C)=C/CC/C(C)=C/CCCOc1ccc(O)c(C)c1C` [Example 11, 2,3-Dimethyl-4-[(5,9,13-Trimethyl-4(E), 8(E), 12-tetradecatrienyl)oxy]phenol] as the molecule, how does the inhibition at 10 µM read?
A: 64%

Q: With `CC(C)=CCCC(C)=CCCC(C)=CCCCOc1c(C)cc(O)cc1C` [Example 13, 3,5-Dimethyl-4-[(5,9,13-Trimethyl-4,8, 12-tetradecatrienyl)oxy]phenol] as the molecule, how does the inhibition at 10 µM read?
A: 70%

Q: How did the inhibition at 10 µM turn out when `CC(C)=CCC/C(C)=C/CC/C(C)=C/CCCOc1c(C)cc(OC(N)=O)cc1C` [Example 14, 3,5-Dimethyl-4-[(5,9,13-Trimethyl-4(E), 8(E), 12-tetradecatrienyl)oxy]phenyl carbamate] was run?
A: 65%

Q: Which inhibition at 10 µM does the source give for `CC(C)=CCC/C(C)=C/CC/C(C)=C/CCCOc1c(C)cc(O)c(C)c1C` [Example 15, 2,3,5-Trimethyl-4-[(5,9,13-Trimethyl-4(E),8(E), 12-tetradecatrienyl)oxy] phenol] here?
A: 48%

Q: With `CC(C)=CCC/C(C)=C/CC/C(C)=C/CCCOc1ccc(O)c(CCO)c1` [Example 18, 2-Hydroxy-5-[(5,9,13-Trimethyl-4(E), 8(E), 12-tetradecatrienyl)oxy]benzene ethanol] as the molecule, how does the inhibition at 10 µM read?
A: 64%

Q: How did the inhibition at 10 µM turn out when `CC(C)=CCC/C(C)=C/CC/C(C)=C/CCCOc1c(F)c(F)c(O)c(F)c1F` [Example 19, 2,3,5,6-Tetrafluoro-4-[(5,9,13-Trimethyl-4(E), 8(E)-,12-tetradecatrienyl)oxy]phenol] was run?
A: 55%

Q: For `CC(=O)c1cc(O)ccc1OCCC/C=C(\C)CC/C=C(\C)CCC=C(C)C` [Example 20, 1-[5-Hydroxy-2-(5,9,13-Trimethyl-4(E), 8(E),12-tetradecatrienyloxy)phenyl]ethanone], which inhibition at 10 µM is on record?
A: 69%

Q: With `CC(C)=CCC/C(C)=C/CC/C(C)=C/CCCOc1cccc(CO)c1` [Example 22, 3-[(5,9,13-Trimethyl-4(E), 8(E),12-Tetradecatrienyl)oxy]benzenemethanol] as the molecule, how does the inhibition at 10 µM read?
A: 73%

Q: `CC(C)=CCC/C(C)=C/CC/C(C)=C/CCCOc1ccc(C(N)=O)cc1` [Example 23, 4-[(5,9,13-Trimethyl-4(E),8(E),12-tetradecatrienyl)oxy]benzamide] was tested. Which inhibition at 10 µM did it give?
A: 42%

Q: Which inhibition at 10 µM does the source give for `CC(C)=CCC/C(C)=C/CC/C(C)=C/CCCOc1ccc(N)cc1` [Example 24, 4-[(5,9,13-Trimethyl-4(E), 8(E),12-tetradecatrienyl)oxy]aniline] here?
A: 65%

Q: With `CC(C)=CCC/C(C)=C/CC/C(C)=C/CCCOc1c(C)cc(N)cc1C` [Example 26, 3,5-Dimethyl-4-[(5,9,13-Trimethyl-4(E), 8(E),12-tetradecatrienyl)oxy] aniline] as the molecule, how does the inhibition at 10 µM read?
A: 51%

Q: For `COC(=O)Nc1cc(C)c(OCCC/C=C(\C)CC/C=C(\C)CCC=C(C)C)c(C)c1` [Example 27, N-[[3,5-Dimethyl-4-[(5,9,13-Trimethyl-4(E), 8(E), 12-tetradecatrienyl)oxy]]phenyl]methyl carbamate], which inhibition at 10 µM is on record?
A: 47%

Q: For `CC(C)=CCC/C(C)=C/CC/C(C)=C/CCCOc1ccc(S(N)(=O)=O)cc1` [Example 28, 4-[(5,9,13-Trimethyl-4(E), 8(E),12-Tetradecatrienyl)oxy] benzenesulfonamide], which inhibition at 10 µM is on record?
A: 58%

Q: For `CC(C)=CCC/C(C)=C/CC/C(C)=C/CCCOc1ccc(B2OB(c3ccc(OCCC/C=C(\C)CC/C=C(\C)CCC=C(C)C)cc3)OB(c3ccc(OCCC/C=C(\C)CC/C=C(\C)CCC=C(C)C)cc3)O2)cc1` [Example 29, 2,4,6-Tris-[4-[(5,9,13-Trimethyl-4(E), 8(E),12-tetradecatrienyl)oxy]phenyl]boroxin], which inhibition at 10 µM is on record?
A: 99%

Q: With `CC(C)=CCC/C(C)=C/CC/C(C)=C/CCC[S+]([O-])c1ccc(O)cc1` (stereo not shown) [Example 31, 4-[(5,9,13-trimethyl-4(E),8(E),12-tetradecatrienyl)sulfinyl]phenol] as the molecule, how does the inhibition at 10 µM read?
A: 47%

Q: With `CC(C)=CCC/C(C)=C/CC/C(C)=C/CCCS(=O)(=O)c1ccc(O)cc1` [Example 32, 4-[(5,9,13-trimethyl-4(E),8(E),12-tetradecatrienyl)sulfonyl]phenol] as the molecule, how does the inhibition at 10 µM read?
A: 38%

Q: `CC(C)=CCC/C(C)=C/CC/C(C)=C/CCCCc1ccc(O)cc1` [Example 33, 4-[6,10,14-Trimethyl-5(E), 9(E), 13-Pentadecatrienyl]phenol] was tested. Which inhibition at 10 µM did it give?
A: 50%

Q: `CC(C)=CCC/C(C)=C/CC/C(C)=C/CCCNc1ccc(O)cc1` [Example 36, 4-[(5,9,13-Trimethyl-4(E), 8(E),12-tetradecatrienyl)amino]phenol] was tested. Which inhibition at 10 µM did it give?
A: 43%

Q: `CC(C)=CCC/C(C)=C/CC/C(C)=C/CCCN(C(=O)OC(C)(C)C)c1ccc(O)cc1` [Example 37, 1,1-Dimethylethyl-(4-Hydroxyphenyl)-(5,9,13-Trimethyl-4(E), 8(E), 12-tetradecatrienyl) carbamate] was tested. Which inhibition at 10 µM did it give?
A: 79%

Q: Which inhibition at 10 µM does the source give for `CC(C)=CCC/C(C)=C/CC/C(C)=C/CCC(C)(C)Oc1ccc(O)cc1` [Example 39, 4-[(1,1,5,9,13-Pentamethyl-4(E), 8(E), 12-tetradecatrienyl)oxy]phenol hydrate] here?
A: 37%

Test system: HMG-CoA reductase
Assay: HepG2 cell culture model - HMG-CoA reductase suppression assay
Assay type: cell-based
Details: HepG2 cells, 4 hours of incubation at 37°, decrease in specific activity vs. vehicle controls
Protocol: HepG2 Cell Culture Model - HMG-CoA Reductase Suppression Assay
HMG-CoA reductase suppression in HepG2 cells was conducted by growing cells in RPMT-1640 plus 10% FBS on 100 mm plates, and when cells reached approximately 75% confluency, inducing with LDS (as described above) for 16 hours prior to assays. Compounds were added using dimethylsulfoxide vehicle (0.5% v/v, final) and after 4 hours of incubation at 37°, cells were harvested by scraping. Cell pellets were rinsed and lysed by sonication in 1.7 ml cold 50 mM imidazole-HCl, pH 7.2, 50 mM NaCl, 10 mM EDTA, 10 mM EGTA, 5mM DTT, and 40 µM leupeptin). Lysates were centrifuged at 150 x g and the supernatant was centrifuged at 100,000 x g in a Beckman airfuge to isolate the post-nuclear total membrane fraction. The membranes were resuspended in 50 mM imidazole-HCl, pH 7.2, 250 mM NaCl, 5 mM DTT, and 20 µM leupeptin and used for the assay of HMG-CoA reductase activity by the radiochemical procedure as described previously by Parker et al., J. Biol. Chem., 264: 4877-4887, (1989). Values were normalized for protein content by the Lowry method as cited previously (ibid). HMG-CoA reductase percent suppression was calculated as the decrease in specific activity of HMG-CoA reductase for treated cells vs. controls receiving vehicle. Averages of duplicate cell determinations assayed in duplicate were taken.

Q: For “4-[(5,9,13-Trimethyl-4(E), 8(E),12-tetradecatrienyl)oxy]benzenemethanol [Example 21]”, which “HMG-CoA Reductase Suppression % 10µM” value is on record?
A: 9%

Q: How did the “HMG-CoA Reductase Suppression % 10µM” value turn out when `CC(C)=CCC/C(C)=C/CC/C(C)=C/CCCOc1ccc(O)cc1` [Example 8, 4-[(5,9,13-Trimethyl-4(E), 8(E),12-tetradecatrienyl)oxy]phenol] was run?
A: 29%

Q: With `CC(C)=CCC/C(C)=C/CC/C(C)=C/CCOc1ccc(O)c(C)c1C` [Example 10, 2,3-Dimethyl-4-[(4,8,12-Trimethyl-3(E),7(E), 11-tridecatrienyl)oxy]phenol] as the molecule, how does the “HMG-CoA Reductase Suppression % 10µM” value read?
A: 38%

Q: How did the “HMG-CoA Reductase Suppression % 10µM” value turn out when `CC(C)=CCC/C(C)=C/CC/C(C)=C/CCCOc1ccc(O)c(C)c1C` [Example 11, 2,3-Dimethyl-4-[(5,9,13-Trimethyl-4(E), 8(E), 12-tetradecatrienyl)oxy]phenol] was run?
A: 53%

Q: `CC(C)=CCCC(C)=CCCC(C)=CCCCOc1c(C)cc(O)cc1C` [Example 13, 3,5-Dimethyl-4-[(5,9,13-Trimethyl-4,8, 12-tetradecatrienyl)oxy]phenol] was tested. Which “HMG-CoA Reductase Suppression % 10µM” value did it give?
A: 45%

Q: How did the “HMG-CoA Reductase Suppression % 10µM” value turn out when `CC(C)=CCC/C(C)=C/CC/C(C)=C/CCCOc1c(C)cc(OC(N)=O)cc1C` [Example 14, 3,5-Dimethyl-4-[(5,9,13-Trimethyl-4(E), 8(E), 12-tetradecatrienyl)oxy]phenyl carbamate] was run?
A: 21%
